{
  "source": "patent US20160256481A1",
  "about": "“USE OF WATER SOLUBLE PLATINUM COMPLEX IN PREPARING DRUGS FOR PREVENTION AND TREATMENT OF CANCERS” (GUDUI BIOPHARMA TECHNOLOGY INC., priority 2011, published 2016)",
  "key": {"L1210 tumor cells": {"system": "L1210 tumor cells", "assay": "Antitumor efficacy in L1210 tumor-bearing CDF1 mice (increase in life span)", "assay_type": "in vivo", "settings": "for Survived Animals on Day 42: 6 per group; for Weight Changes: from the first day to the seventh day", "method": "In the following test, antitumor efficacy studies were performed using 8-9 weeks old female CDF1 mice, the average weight of the animal is 20-25 grams. L1210 tumor cells (about 10^5 cells per mouse) were inoculated intraperitoneally. The water-soluble platinum complexes were used to treat the tumor-bearing animals and the efficacy was compared compared with the clinical platinum antitumor drugs. […] Drugs were administered intraperitoneally on day 1 and day 4 after tumor cell transplantation. The number of experimental animals in each group was 6.\nThe experimental animals were purchased from Vital River Laboratory Animal Technology Co. Ltd., Tumor cells L1210-leukemia cells were purchased from Shanghai An Yan Commercial Trade Co. Ltd.\nThe increase in life span (ILS) is calculated as follows:\nWherein, St=the weighted median survival time of treated animals; Su=the weighted median survival time of untreated animals"}, "HT-29-human colon cancer": {"system": "HT-29-human colon cancer", "assay": "MTS cytotoxicity assay (IC50)", "assay_type": "cell-based", "settings": "HT29, 96 h, read-out: IC50 value in human tumor cells HT29", "method": "(§1) Containing 10% bovine fetal serum, 1 mM of sodium pyruvate, 2 mM of L-glutamine, 50 U/mL of penicillin, 50 μg/mL of streptomycin\n(§2) Human tumor cells: du145-human prostate cancer; MCF-7-human breast cancer; SK0V3-human ovarian carcinoma, HT-29-human colon cancer; A549-human non-small cell lung cancer (adenocarcinoma), H460-human non-small cell lung cancer (large cell carcinoma), and animal tumor cells: L 1210-mice leukemia cells used in the following activity test experiments were all purchased from Shanghai An Yan Commercial Trade Co., Ltd.\n(§3) MTS test method was used in cytotoxicity assay. The tumor cells of logarithmic phase were collected, and then the concentration of cell suspension was adjusted, 100 μL of the cell suspension was added to each well, the cells were placed at 1000-10000 cells/well (edge well filled with sterile PBS). Cells were incubated at 37° C. with 5% CO2 to make cell monolayer overspread the bottom of each well (96-well flat-bottomed microplate). 100 μL of different concentrations of the test compounds was added to each well. Each condition was measured in five replicates. The microplate was incubated at 37° C. with 5% CO2 for 96 h and checked with inverted microscope. MTS working reagent: To 2 mL of MTS (2 mg/mL, prepared by DPBS) was added 100 μL of PMS (1 mg/mL, prepared by DPBS). The cell culture medium was discarded after centrifugation, the cell culture plate was carefully washed 2-3 times with PBS. Before detecting the absorbance value (OD), to each sample containing well was added 100 μL of cell culture medium, then 20 μL of MTS working reagent was added. After incubation at 37° C. with 5% CO2 for 2 h, the OD (optical density) value was detected at 490 nm.\n(§4) Control group: the conditions are the same as the above without adding the active ingredient of antitumor agents, and the OD value was detected at 490 nm on the end of the experiment.\n(§5) The cell inhibiting rate of the drugs to tumor cell growth was calculated according to the following formula:\n(§6) 1) Cell viability (%)=OD of treated group/OD of control group×100%\n(§7) 2) The cell viabilities under the different drug concentrations were determined, and then plotted against drug concentration. The IC50 value is the corresponding concentration in the obtained curve when the cell viability was 50%."}, "[1]": {"system": "A549-human non-small cell lung cancer (adenocarcinoma)", "assay": "MTS cytotoxicity assay (IC50)", "assay_type": "cell-based", "settings": "A549, 96 h, read-out: IC50 value in human tumor cells A549", "method": "as §1, §2, §3, §4, §5, §6, §7"}, "[2]": {"system": "MCF-7-human breast cancer", "assay": "MTS cytotoxicity assay (IC50)", "assay_type": "cell-based", "settings": "MCF7, 96 h, read-out: IC50 value in human tumor cells MCF7", "method": "as §1, §2, §3, §4, §5, §6, §7"}, "[3]": {"system": "du145-human prostate cancer", "assay": "MTS cytotoxicity assay (IC50)", "assay_type": "cell-based", "settings": "DU145, 96 h, read-out: IC50 value in human tumor cells DU145", "method": "as §1, §2, §3, §4, §5, §6, §7"}, "[4]": {"system": "SKOV3-human ovarian carcinoma", "assay": "MTS cytotoxicity assay (IC50)", "assay_type": "cell-based", "settings": "SKOV3, 96 h, read-out: IC50 value in human tumor cells SKOV3", "method": "as §1, §2, §3, §4, §5, §6, §7"}, "[5]": {"system": "H460-human non-small cell lung cancer (large cell carcinoma)", "assay": "MTS cytotoxicity assay (IC50)", "assay_type": "cell-based", "settings": "H460, 96 h, read-out: IC50 value in human tumor cells H460", "method": "as §1, §2, §3, §4, §5, §6, §7"}, "[6]": {"settings": "cited from earlier work"}, "[7]": {"settings": "1.25 mg/Kg i.p. day 1 and day 4"}},
  "data": [
    {"compound": "cis-[trans-(1R, 2R)-diaminocyclohexane] Pt (II) (1-O-D-glucoside-propane-3-chloro-3,3-dicarboxylate) [Complex 2]", "values": [
      {"measurement": "ILS", "setting": "L1210 tumor cells; 50 mg/Kg i.p. day 1 and day 4", "result": ">425", "unit": "%"},
      {"measurement": "Survived Animals on Day 42", "setting": "L1210 tumor cells; 50 mg/Kg i.p. day 1 and day 4", "result": "6/6"},
      {"measurement": "Weight Changes", "setting": "L1210 tumor cells; 50 mg/Kg i.p. day 1 and day 4", "result": "+1.1 g"},
      {"measurement": "ILS", "setting": "L1210 tumor cells; 100 mg/Kg i.p. day 1 and day 4", "result": ">425", "unit": "%"},
      {"measurement": "Survived Animals on Day 42", "setting": "L1210 tumor cells; 100 mg/Kg i.p. day 1 and day 4", "result": "6/6"},
      {"measurement": "Weight Changes", "setting": "L1210 tumor cells; 100 mg/Kg i.p. day 1 and day 4", "result": "+0 g"},
      {"measurement": "ILS", "setting": "L1210 tumor cells; 200 mg/Kg i.p. day 1 and day 4", "result": ">425", "unit": "%"},
      {"measurement": "Survived Animals on Day 42", "setting": "L1210 tumor cells; 200 mg/Kg i.p. day 1 and day 4", "result": "6/6"},
      {"measurement": "Weight Changes", "setting": "L1210 tumor cells; 200 mg/Kg i.p. day 1 and day 4", "result": -0.4, "unit": "g"},
      {"measurement": "IC50", "setting": "HT-29-human colon cancer", "result": 1.88, "unit": "µM"},
      {"measurement": "IC50", "setting": "[1]", "result": 0.821, "unit": "µM"},
      {"measurement": "IC50", "setting": "[2]", "result": 2, "unit": "µM"},
      {"measurement": "IC50", "setting": "[3]", "result": 5.19, "unit": "µM"},
      {"measurement": "IC50", "setting": "[4]", "result": 10, "unit": "µM"},
      {"measurement": "IC50", "setting": "[5]", "result": 22, "unit": "µM"}
    ]},
    {"compound": "N.N.[Cl][Pt][Cl]", "note": "[Cisplatin]", "values": [
      {"measurement": "ILS", "setting": "L1210 tumor cells; [7]", "result": 20, "unit": "%"},
      {"measurement": "Survived Animals on Day 42", "setting": "L1210 tumor cells; [7]", "result": "0/6"},
      {"measurement": "ILS", "setting": "L1210 tumor cells; 2.5 mg/Kg i.p. day 1 and day 4", "result": 125, "unit": "%"},
      {"measurement": "Survived Animals on Day 42", "setting": "L1210 tumor cells; 2.5 mg/Kg i.p. day 1 and day 4", "result": "1/6"},
      {"measurement": "ILS", "setting": "L1210 tumor cells; 5.0 mg/Kg i.p. day 1 and day 4", "result": 265, "unit": "%"},
      {"measurement": "Survived Animals on Day 42", "setting": "L1210 tumor cells; 5.0 mg/Kg i.p. day 1 and day 4", "result": "3/6"}
    ]},
    {"compound": "N.N.O=C([O-])C1(C(=O)[O-])CCC1.[Pt+2]", "note": "[Carboplatin]", "values": [
      {"measurement": "water solubility", "setting": "[6]", "result": 17, "unit": "mg/mL"},
      {"measurement": "ILS", "setting": "L1210 tumor cells; 24 mg/Kg i.p. day 1 and day 4", "result": 8, "unit": "%"},
      {"measurement": "Survived Animals on Day 42", "setting": "L1210 tumor cells; 24 mg/Kg i.p. day 1 and day 4", "result": "0/6"},
      {"measurement": "Weight Changes", "setting": "L1210 tumor cells; 24 mg/Kg i.p. day 1 and day 4", "result": "+0.6 g"},
      {"measurement": "ILS", "setting": "L1210 tumor cells; 40 mg/Kg i.p. day 1 and day 4", "result": 22, "unit": "%"},
      {"measurement": "Survived Animals on Day 42", "setting": "L1210 tumor cells; 40 mg/Kg i.p. day 1 and day 4", "result": "0/6"},
      {"measurement": "Weight Changes", "setting": "L1210 tumor cells; 40 mg/Kg i.p. day 1 and day 4", "result": -0.4, "unit": "g"},
      {"measurement": "ILS", "setting": "L1210 tumor cells; 80 mg/Kg i.p. day 1 and day 4", "result": 50, "unit": "%"},
      {"measurement": "Survived Animals on Day 42", "setting": "L1210 tumor cells; 80 mg/Kg i.p. day 1 and day 4", "result": "1/6"},
      {"measurement": "Weight Changes", "setting": "L1210 tumor cells; 80 mg/Kg i.p. day 1 and day 4", "result": -1.2, "unit": "g"}
    ]}
  ]
}
